Results published in patent publication US20090081197A1 (Palatin Technologies, Inc., priority 2007, published 2009).
pEC50: −log10 of the molar value. Like-named read-outs stand apart in the source and are kept apart here.

Assays:
MC4-R [1] = molecular target: T1, MC4-R (Homo sapiens, UniProt P32245); assay: cAMP functional activity assay in HEK-293 cells, normal system; type: cell-based; set-up: expressed in transfected cells; host or cells: HEK-293; conditions: for intrinsic activity at MC4-R in a normal system: normal receptor density system, NDP-α-MSH = 1.0; for functional status at MC4-R in cAMP assay: normal system, 1 μM concentration where stated
T1 sequence (P32245 whole entry): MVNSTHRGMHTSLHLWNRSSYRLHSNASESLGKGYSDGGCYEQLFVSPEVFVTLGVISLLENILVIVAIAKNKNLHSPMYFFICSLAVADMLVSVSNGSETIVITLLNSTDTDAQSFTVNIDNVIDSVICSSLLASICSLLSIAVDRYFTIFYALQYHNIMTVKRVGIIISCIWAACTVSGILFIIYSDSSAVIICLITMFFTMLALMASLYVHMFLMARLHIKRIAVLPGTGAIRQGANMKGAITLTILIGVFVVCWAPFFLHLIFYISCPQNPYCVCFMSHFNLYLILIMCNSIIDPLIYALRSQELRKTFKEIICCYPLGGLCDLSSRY

MC1-R [2] = molecular target: T2, MC1-R (Mus musculus, UniProt Q01727); assay: Competitive inhibition assay using [I^125]-NDP-α-MSH, B-16 mouse melanoma cell membranes; type: binding; conditions: for inhibition at 1 µM: 1 μM test compound, read-out: Inhibition at 1 μM (NDP-α-MSH) In Normal System, MC1-R; for Ki: read-out: Ki (nM) (NDP-α-MSH) In Normal System, MC1-R
T2 construct: B-16 mouse melanoma cells (containing MC1-R); endogenous in cells
T2 sequence (Q01727 whole entry): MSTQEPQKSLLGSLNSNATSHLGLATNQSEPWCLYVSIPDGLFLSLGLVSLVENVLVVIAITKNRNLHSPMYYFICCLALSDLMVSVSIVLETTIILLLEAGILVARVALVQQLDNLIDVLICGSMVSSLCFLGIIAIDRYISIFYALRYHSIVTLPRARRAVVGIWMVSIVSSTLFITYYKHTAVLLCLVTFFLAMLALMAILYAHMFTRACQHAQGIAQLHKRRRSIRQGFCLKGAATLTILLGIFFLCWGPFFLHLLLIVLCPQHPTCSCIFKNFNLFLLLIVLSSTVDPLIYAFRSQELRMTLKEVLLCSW
Summary of the method: (§1)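 Tracer was 0.4 nM for MC3-R and MC5-R, 0.2 nM for MC4-R and 0.1 nM for MC1-R. Bound radioactivity was gamma-counted after filtration; values are triplicate means, with results below 0% reported as 0%.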

[3] = Penile erection induction in male rats; type: in vivo; conditions: rat
Summary of the method: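 Male Sprague-Dawley rats (200-250 g), groups of 4-8, dosed IV or ICV at various doses and observed individually for penile erections. Only statistically relevant increases over vehicle-control mean PEs count as induction; IV responses below 1.0 PEs/rat treated as equivocal, some retested ICV.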

MC4-R [4] = molecular target: T1, MC4-R; assay: Competitive inhibition assay using [I^125]-NDP-α-MSH, hMC4-R membranes; type: binding; set-up: host or cells: TREx-293 (HEK-293 stably expressing Tet repressor); conditions: for inhibition at 1 µM: 1 μM test compound, read-out: Inhibition at 1 μM (NDP-α-MSH) In Normal System, MC4-R
Summary of the method: as §1

MC3-R [5] = molecular target: T3, MC3-R (Homo sapiens, UniProt P41968); assay: Competitive inhibition assay using [I^125]-NDP-α-MSH, hMC3-R membranes; type: binding; set-up: expressed in transfected cells; conditions: for inhibition at 1 µM: 1 μM test compound, read-out: Inhibition at 1 μM (NDP-α-MSH) In Normal System, MC3-R
T3 sequence (P41968 whole entry): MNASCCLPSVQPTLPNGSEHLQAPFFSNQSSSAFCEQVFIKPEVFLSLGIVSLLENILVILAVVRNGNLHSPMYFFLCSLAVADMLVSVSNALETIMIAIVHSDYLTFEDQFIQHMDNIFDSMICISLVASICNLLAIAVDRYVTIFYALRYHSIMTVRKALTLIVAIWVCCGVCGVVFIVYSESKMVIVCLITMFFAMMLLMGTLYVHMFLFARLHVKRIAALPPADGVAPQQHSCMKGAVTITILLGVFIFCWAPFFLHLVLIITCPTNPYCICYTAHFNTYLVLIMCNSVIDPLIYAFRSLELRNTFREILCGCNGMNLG
Summary of the method: as §1

MC5-R [6] = molecular target: T4, MC5-R (Homo sapiens, UniProt P33032); assay: Competitive inhibition assay using [I^125]-NDP-α-MSH, hMC5-R membranes; type: binding; set-up: expressed in transfected cells; conditions: for inhibition at 1 µM: 1 μM test compound, read-out: Inhibition at 1 μM (NDP-α-MSH) In Normal System, MC5-R
T4 sequence (P33032 whole entry): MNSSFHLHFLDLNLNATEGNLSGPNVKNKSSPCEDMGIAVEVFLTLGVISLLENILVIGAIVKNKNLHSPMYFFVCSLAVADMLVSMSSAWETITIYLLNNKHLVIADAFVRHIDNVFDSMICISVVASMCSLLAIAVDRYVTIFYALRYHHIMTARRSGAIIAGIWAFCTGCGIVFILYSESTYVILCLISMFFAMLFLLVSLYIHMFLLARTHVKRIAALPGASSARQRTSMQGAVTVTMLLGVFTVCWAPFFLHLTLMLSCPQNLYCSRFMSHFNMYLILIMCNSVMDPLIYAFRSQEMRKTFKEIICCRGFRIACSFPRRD
Summary of the method: as §1

MC5-R [7] = molecular target: T4, MC5-R; assay: cAMP functional activity assay in HEK-293 cells; type: cell-based; set-up: expressed in transfected cells; host or cells: HEK-293; conditions: 1 μM concentration where stated
Procedure: (§2) General method for EC50 determination in functional activity assay. […] Data analysis and EC50 values were determined using nonlinear regression analysis with Prism Graph-Pad software.
(§3) Functional status. The agonist/antagonist status with respect to MC1-R, MC-3R, MC4-R and MC5-R of certain compounds of the invention was determined. Antagonistic activity was determined by measuring the inhibition of α-MSH-induced or NDP-α-MSH-induced cAMP levels following exposure to graded doses of compounds as in the preceding descriptions.

MC1-R [8] = molecular target: T2, MC1-R; assay: cAMP functional activity assay in B-16 mouse melanoma cells; type: cell-based; conditions: 1 μM concentration where stated
Procedure: as §2, §3

MC4-R [9] = molecular target: T1, MC4-R; assay: cAMP agonist stimulation, high receptor density system (10 ng/mL doxycycline); conditions: for Efficacy/Intrinsic Activity: NDP-α-MSH maximal cAMP = 1.0
MC4-R [10] = molecular target: T1, MC4-R; assay: cAMP agonist stimulation, low receptor density system (0.1 ng/mL doxycycline); conditions: 0.1 ng/mL doxycycline, low receptor density hMC4-R system; NDP-α-MSH maximal cAMP = 1.0
MC3-R [11] = molecular target: T3, MC3-R; assay: cAMP functional activity assay in HEK-293 cells; type: cell-based; set-up: expressed in transfected cells; host or cells: HEK-293; conditions: 1 μM concentration where stated
Procedure: as §2, §3

[12] = 10 ng/mL doxycycline, high receptor density hMC4-R system

| Compound | intrinsic activity at MC4-R in a normal system (MC4-R [1]) | functional status at MC4-R in cAMP assay (MC4-R [1]) | inhibition at 1 µM (MC1-R [2]) [%] | Ki (MC1-R [2]) [nM] | Penile Erection IV ([3]; IV) | inhibition at 1 µM (MC4-R [4]) [%] | inhibition at 1 µM (MC3-R [5]) [%] | inhibition at 1 µM (MC5-R [6]) [%] | functional status at MC5-R in cAMP assay (MC5-R [7]) | functional status at MC1-R in cAMP assay (MC1-R [8]) | pEC50 (MC4-R [9]) | Efficacy/Intrinsic Activity (MC4-R [9]; [12]) | Efficacy/Intrinsic Activity (MC4-R [10]) | Penile Erection ICV ([3]; ICV) | functional status at MC3-R in cAMP assay (MC3-R [11]) | penile erection response ([3]; IV, 0.3 to 30 μg/kg) | further results |
| --- | --- | --- | --- | --- | --- | --- | --- | --- | --- | --- | --- | --- | --- | --- | --- | --- | --- |
| N=C(N)NCCC[C@H]1C(=O)N(CCc2c[nH]c3ccccc23)CCN1C(=O)[C@H](N)Cc1ccc(Cl)cc1Cl [Example 2, N-(3-{(S)-1-[(R)-2-Amino-3-(2,4-dichloro-phenyl)-propionyl]-4-[2-(1H-indol-3-yl)-ethyl]-3-oxo-piperazin-2-yl}-propyl)-guanidine] | 0.3 | partial agonist (intrinsic activity between 0.1 (10%) and 0.7 (70%) is classified as a partial agonist) | 7 | 1410 | No | 96 | 57 | 35 | partial agonist (intrinsic activity between 0.1 (10%) and 0.7 (70%) is classified as a partial agonist) | partial agonist (intrinsic activity between 0.1 (10%) and 0.7 (70%) is classified as a partial agonist) | 7.24 | 0.56 | None |  |  |  | penile erection response ([3]; IV, 0.3 to 3 μg/kg): did not cause penile erection behavior |
| N-{3-[1-[2(R)-Amino-3-(4-chloro-2-fluoro-phenyl)-propionyl]-5(S)-methyl-4-(2-naphthalen-2-yl-ethyl)-piperazin-2(S)-yl]-propyl}-guanidine [Example 3] |  | no intrinsic activity (intrinsic activity below 0.1 (10%) is classified as inactive or having no intrinsic activity) |  | 109 |  |  |  |  | no intrinsic activity (intrinsic activity below 0.1 (10%) is classified as inactive or having no intrinsic activity) | partial agonist (intrinsic activity between 0.1 (10%) and 0.7 (70%) is classified as a partial agonist) |  | 0.26 | None |  |  |  | Ki (MC4-R [4]; read-out: Ki (nM) (NDP-α-MSH) In Normal System, MC4-R): 6 nM; Ki (MC3-R [5]; read-out: Ki (nM) (NDP-α-MSH) In Normal System, MC3-R): 186 nM; Ki (MC5-R [6]; read-out: Ki (nM) (NDP-α-MSH) In Normal System, MC5-R): 204 nM; pEC50 (MC4-R [9]; [12]): 7.21 |
| Cc1[nH]c2ccccc2c1CCN1C[C@H](CCCNC(=N)N)N(C(=O)[C@H](N)Cc2ccc3ccccc3c2)C[C@H]1C [Example 8, N-(3-{1-(2(R)-Amino-3-naphthalen-2-yl-propionyl)-5(R)-methyl-4-[2-(2-methyl-1H-indol-3-yl)-ethyl]-piperazin-2(S)-yl}-propyl)-guanidine] | 0.9 | agonist (intrinsic activity of 0.7 (70%) or higher is classified as an agonist) | 73 | 148 |  | 95 | 57 | 76 | agonist (intrinsic activity of 0.7 (70%) or higher is classified as an agonist) | partial agonist (intrinsic activity between 0.1 (10%) and 0.7 (70%) is classified as a partial agonist) |  | None | None | No | no intrinsic activity (intrinsic activity below 0.1 (10%) is classified as inactive or having no intrinsic activity) |  | penile erection response ([3]; ICV, 0.01 to 10 nM): no penile erection response |
| C[C@@H]1CN(C(=O)[C@H](N)Cc2ccc3ccccc3c2)[C@@H](CCCNC(=N)N)CN1C(=O)CCCc1c[nH]c2ccccc12 [Example 7] | 0.4 | partial agonist (intrinsic activity between 0.1 (10%) and 0.7 (70%) is classified as a partial agonist) | 0 | 1200 |  | 88 | 32 | 62 | no intrinsic activity (intrinsic activity below 0.1 (10%) is classified as inactive or having no intrinsic activity) | no intrinsic activity (intrinsic activity below 0.1 (10%) is classified as inactive or having no intrinsic activity) | 7.14 | 0.38 | None | No | no intrinsic activity (intrinsic activity below 0.1 (10%) is classified as inactive or having no intrinsic activity) |  | penile erection response ([3]; ICV, 0.01 to 10 nmol): no penile erection response |
| Cc1ccc(CCN2C[C@H](CCCNC(=N)N)N(C(=O)[C@H](N)Cc3ccc4ccccc4c3)C[C@H]2C)cc1 [Example 5, N-{3-[1-(2(R)-Amino-3-naphthalen-2-yl-propionyl)-5(R)-methyl-4-(2-p-tolyl-ethyl)-piperazin-2(S)-yl]-propyl}-guanidine] | 0.6 | partial agonist (intrinsic activity between 0.1 (10%) and 0.7 (70%) is classified as a partial agonist) | 32 | 135 | No | 95 | 61 | 65 | partial agonist (intrinsic activity between 0.1 (10%) and 0.7 (70%) is classified as a partial agonist) | partial agonist (intrinsic activity between 0.1 (10%) and 0.7 (70%) is classified as a partial agonist) | 6.93 | 0.46 | None |  | no intrinsic activity (intrinsic activity below 0.1 (10%) is classified as inactive or having no intrinsic activity) | no penile erection response |  |
| C[C@@H]1CN(C(=O)[C@H](N)Cc2ccc3ccccc3c2)[C@@H](CCCNC(=N)N)CN1C(=O)Cc1c[nH]c2ccccc12 [Example 6, N-{3-[1-(2(R)-Amino-3-naphthalen-2-yl-propionyl)-4-(2-1H-indol-3-yl-acetyl)-5(R)-methyl-piperazin-2(S)-yl]-propyl}-guanidine] | 0.2 | partial agonist (intrinsic activity between 0.1 (10%) and 0.7 (70%) is classified as a partial agonist) | 20 | 315 | No | 90 | 35 | 6 | partial agonist (intrinsic activity between 0.1 (10%) and 0.7 (70%) is classified as a partial agonist) | no intrinsic activity (intrinsic activity below 0.1 (10%) is classified as inactive or having no intrinsic activity) | 7.41 | 0.43 | None |  | no intrinsic activity (intrinsic activity below 0.1 (10%) is classified as inactive or having no intrinsic activity) | no penile erection response |  |
